For six compounds, GI50 and TGI results are on record in PubChem BioAssay (NCI).

What all share (test): growth of human tumour cells (NCI), 48 h
Experiment [1] has as its system CAKI-1 renal.
Experiment [2] relates to CCRF-CEM leukemia.
The test system of experiment [3] is EKVX NSCLC.
In experiment [4] the test system is IGROV1 ovarian.
Experiment [5] has as its system K-562 leukemia.
Experiment [6] concerns MOLT-4 leukemia.
Experiment [7] deals with NCI-H522 lung.
For experiment [8], the system named is SF-539 CNS.
The subject of experiment [9] is SK-MEL-28 melanoma.
The subject of experiment [10] is UACC-257 melanoma.

Where “and” joins values, the source holds several entries; their conditions need not be identical. Equal entries are not always repeated.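 Dose response: 5 concentrations. Exposure: 48 h. Format: 96-well plates. Endpoint: linear interpolation; highest concentration if not reached. GI50 marks 50% less growth. The concentration for full growth arrest is given as TGI.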

Regarding `CCC1C(C)C=NN1c1nc(N)nc(C(C#N)=Nc2ccc(N(C)C)cc2)n1` (stereo unspecified), the GI50 in experiment [1] is 9.06 µM; in experiment [2], 6.11 µM; in experiment [3], 11.3 µM; in [4], 30.9 µM; in [5] it was 2.73 µM; in experiment [6], 21.6 µM. Further, the GI50 was greater than 50 µM in experiment [7], 1.03 µM in experiment [8], 8.61 µM in experiment [9] and greater than 50 µM in experiment [10]. For the same compound, the TGI in experiment [1] was 20.8 µM; in experiment [2], 20.4 µM; in experiment [3], 32.2 µM; in experiment [4] it was greater than 50 µM; in experiment [5] it was greater than 50 µM; in experiment [6], greater than 50 µM. The TGI is greater than 50 µM in [7], 5.97 µM in experiment [8], 18.4 µM in experiment [9] and greater than 50 µM in experiment [10].

As to `O=[N+]([O-])c1cccc(-c2nc(-c3ccc(Cl)cc3Cl)cn2-c2ccccc2)c1`, the GI50 in experiment [1] is 0.477 µM; in experiment [3], 0.56 µM; in experiment [4], 1.2 µM; in [5], greater than 9.26 µM; in experiment [6], 3.21 µM; in experiment [7] it was 3.25 µM. Moreover, the GI50 in experiment [8] is 1.02 µM; in experiment [9] it was 6.76 µM; in experiment [10], 1.41 µM. For the same compound, the TGI in experiment [1] is 1.21 µM; in experiment [2], greater than 18.7 µM; in [3] it was 2.5 µM; in experiment [4], 3.86 µM; in experiment [5] it was greater than 33.3 µM; in experiment [6], greater than 33.3 µM. For the same compound, the TGI in experiment [7] is greater than 20.2 µM; in experiment [8], 4.33 µM; in experiment [9], 24.2 µM; in [10], 10.7 µM.

`CN1CCN(c2ccc(OC(F)(F)F)c(Nc3ncc4c(n3)-c3c(c(C(N)=O)nn3CCO)CC4)c2)CC1`: the GI50 is 0.584 µM and 0.831 µM in [1]; 0.0197 µM and 0.0283 µM in experiment [2]; 0.0907 µM and 0.169 µM in [3]; 0.0375 µM and 0.0269 µM in experiment [5]; 0.0349 µM and 0.0615 µM in experiment [6]; 0.03 µM and 0.0265 µM in experiment [7]. For the same compound, the GI50 is 0.0363 µM and 0.0682 µM in experiment [8]; 0.738 µM in experiment [9]. The TGI in [1] is greater than 44.8 µM; in experiment [2], 28.5 µM; in [3] it was greater than 88.2 µM; in experiment [4], 46.6 µM and > 10 µM; in [5], 19.6 µM; in experiment [6], 18.5 µM and > 10 µM. Also, the TGI in [8] was 12.4 µM and > 4.8 µM; in experiment [9] it was greater than 10 µM; in [10], 28.6 µM and > 6.61 µM.

As for `O=C1CC[C@H](N2Cc3c(OCc4ccc(CN5CCOCC5)cc4)cccc3C2=O)C(=O)N1`, the GI50 in experiment [1], in experiment [2], in experiment [3], in experiment [4], in [5] and in experiment [6] was greater than 100 µM in each case. The GI50 in experiment [7], in experiment [8], in [9] and in experiment [10] was greater than 100 µM each time. Further, the TGI in experiment [1], in experiment [2], in experiment [3], in experiment [4], in experiment [5] and in [6] was greater than 100 µM in each case. Also, the TGI in experiment [7], in [8], in experiment [9] and in experiment [10] was greater than 100 µM in each case.

As to `CCN(CC)c1c(-c2ccccc2)n[nH]c1C(=O)OC`, the GI50 in [1] is 25.8 µM; in [2] it was 22.8 µM; in experiment [3] it was 21.2 µM; in experiment [4], 50.8 µM; in [5] it was 31.2 µM; in experiment [6], 18.6 µM. Besides, the GI50 in [7] was 18.5 µM; in [8] it was 20.1 µM; in experiment [9], 22.2 µM; in experiment [10], 12.6 µM. The TGI was 55.5 µM in experiment [1]; 71 µM in experiment [2]; 56.8 µM in experiment [3]; greater than 100 µM in [4]; greater than 100 µM in experiment [5]; 58.2 µM in experiment [6]. Besides, the TGI is 50.7 µM in [7], 36.5 µM in experiment [8], greater than 100 µM in experiment [9] and 36.5 µM in [10].

`Cc1ccc(C(=O)NCCCOc2ccc(N3C(N)=NC(N)=NC3(C)C)cc2Cl)cc1S(=O)(=O)F`: the GI50 is greater than 100 µM in experiment [1]; 5.33 µM in experiment [2]; greater than 100 µM in [3]; 4.42 µM in experiment [4]; 8.81 µM in [5]; greater than 100 µM in experiment [6]. For the same compound, the GI50 in [7] is 61.7 µM; in experiment [8], 8.1 µM; in experiment [9], 74.7 µM; in experiment [10], greater than 100 µM. The TGI in experiment [1], in [2], in experiment [3], in experiment [4], in experiment [5] and in experiment [6] was greater than 100 µM in each case. The TGI in experiment [7], in experiment [8], in [9] and in [10] was greater than 100 µM in each case.
